By inhibition is commonly meant the relative decrease from the control value, in per cent.

This note sets out measurements from US20070078180A1, “Methods and compositions for stabilizing an antioxidant” (priority 2005, published 2007).

The nature of data set [1]: Oxidation of CoQ10 by sodium hypochlorite, with or without lycopene (HPLC). The class given is physicochemical. How it is done: (§1) HPLC Analysis of CoQ10. The amount of CoQ10 remaining in degradation experiments below were determined by High Pressure Liquid Chromatography (HPLC). The column used was a Microsorb C18 reverse phase column (15 cm×0.46 cm), the mobile phase consisted of 85% methanol and 15% hexane at a flow rate of 1 ml/minute and CoQ10 was detected at […]. The instrument used was a HP 1090 gradient HPLC system with photodiode array detector and autosampler.
Methods and Materials. The following experiment examined the effect of sodium hypochlorite on CoQ10.
For this experiment, CoQ10 was prepared in HPLC “mobil phase” (methanol:hexane) and incubated with different concentrations of sodium hypochlorite prepared in water/methanol. The reaction was allowed to proceed for up to 30 minutes, at which time samples were injected on HPLC.
The stock lycopene was 10 mg/ml in soybean oil. It was diluted into toluene and used in the reaction at 0.1% lycopene. To allow the CoQ10, hypochlorite aqueous solution and lycopene to react, a detergent was used to bring the polar and nonpolar phases together. The incubation lasted for 30 minutes.

Data set [2] in a line: Degradation by hydroxyl radicals from the Fenton reaction (HPLC). The class given is physicochemical. As to conditions: room temperature, one hour. How it is done: as §1
Methods and Materials. The following experiment examined the effect of the hydroxyl radical on CoQ10. The hydroxyl radical is a reactive oxygen species (“ROS”) produced in the human body. The radical is generated by the reaction of iron with hydrogen peroxide (commonly called the Fenton reaction).
For this experiment, CoQ10 was prepared in a solution of chloroform/ethanol (1:1) at a concentration of 10 micrograms/ml. The Fenton reaction was then initiated by the addition of hydrogen peroxide and iron (III) chloride and allowed to proceed at room temperature for one hour, at which time samples were injected on HPLC.

Data set [3] in a line: Oxidation of CoQ10 by 0.03% hypochlorite, with lycopene or colorless carotenoids (HPLC). The class given is physicochemical. As to conditions: Example 7, 1.5 hours. How it is done: as §1
Methods and Materials. The following experiment was a comparison of the impact that colorless carotenoids or lycopene have on CoQ10 when CoQ10 is exposed to hypochlorite oxidation.
695 μg/ml of CoQ10 was prepared in chloroform/ethanol (1:1). The calculated amounts of phytoene and phytofluene used in the study was 0.0142% and 0.0012%, respectively. The calculated amount of lycopene was 2 mg/ml in chloroform. Four plates of cells were prepared and allowed to attach overnight as described above. CoQ10 was then added to each of the plates. Further, lycopene was added to one of the plates, and the carotenoids were added to another. Three plates (one of the plates containing only CoQ10 was treated as a control) were then incubated with 0.03% hypochlorite (“HOCL”) for 1.5 hours. Then the samples were removed and assayed by HPLC to determine CoQ10 levels.

Data set [4] is described as follows: Effect of UVB radiation on stability of CoQ10 in PBS buffer (HPLC). The class given is physicochemical. How it is done: (§2) HPLC Methods. To measure CoQ10 levels in tissue culture medium, an appropriate high performance liquid chromatography (“HPLC”) method had to be established.
(§3) For the instant examples, a reliable HPLC method was established for CoQ10 using an isochratic method with a mobile phase of 85% methanol and 15% hexane. CoQ10 was detected at 275 nm.
as §1
(§4) Methods and Materials. The following experiment involved examining the effect of ultraviolet radiation (“UVR”) on levels of CoQ10 in culture medium. More specifically, ultraviolet-B (“UVB,” which is ultraviolet radiation ranging from about 290 nm to about 320 nm) dose-response studies were conducted on various concentrations of CoQ10 placed in either PBS buffer or into culture media. Doses of UVB ranged from 50 mJ to 200 mJ. In the culture media, 10 μm of CoQ10 was placed in a fibroblast culture for 24 hours.

The test system of data set [5] is PGE-2. Nature of the data set: UV-induced PGE-2 in dermal fibroblasts (ELISA). The class given is cell-based, human. Particulars: UVB doses of 75 mJ, 100 mJ and 125 mJ; 10 μM. From the text: Methods and Materials. The following experiment involved examining the effect of CoQ10 on UVR-induced inflammatory mediators in human dermal fibroblasts. That is, because skin aging is known to be accelerated by inflammatory cytokines produced in the skin by UVR, this experiment assessed the ability of CoQ10 to inhibit the production of the inflammatory mediators produced in human dermal fibroblasts in response to either UVB radiation or to stimulation by IL-1, a pro-inflammatory cytokine produced in keratinocytes by UVR. […]
The cells were isolated and cultured as follows. The dermal fibroblasts were isolated from human neonatal foreskin and cultured in Dulbecco's modified eagle media with L-glutamine and 4.5 mM glucose and without sodium pyruvate (“DMEM”) (available from Fisher Scientific, Pittsburgh, Pa.) containing 5% horse serum (available from Hyclone, Logan, Utah), 5% fetal bovine serum (available from Hyclone), and penicillin/streptomycin (100 U/100 μg/ml). Cell cultures were grown at 37° C. in a humidified CO2 incubator (5% CO2). […]
(§5) For the experiments, cells were seeded into 12 well culture dishes in complete growth medium at a density of 10^5 cells/well and allowed to attach overnight. […] Cells were incubated for 24 hours at 37° C., at which time the media was removed for assay and the cells counted. […]
In general terms: In an ELISA, binding on a coated surface is turned into a signal by an enzyme label.

Data set [6] can be described thus: Oxidation of CoQ10 by potassium hydroxide, with or without colorless carotenoids (HPLC). The class given is physicochemical. As to conditions: 600 μM CoQ10, 1 mM KOH, 30 minutes, room temperature. How it is done: as §1
Methods and Materials. The following experiment examined whether colorless carotenoids could protect CoQ10 from potassium hydroxide oxidation.
600 μM of CoQ10 was prepared in chloroform stock. 500 μg/ml of the colorless carotenoids was prepared in DMSO. The calculated amount of potassium hydroxide (“KOH”) was 1 mM. Three plates of cells were prepared and allowed to attach overnight as described above. CoQ10 was then added to each of the plates. Further, KOH was added to two of the plates (one was maintained as a control containing only CoQ10). Further, the carotenoids were added to one of the plates containing KOH. Reactions were performed in a total volume of 1 ml. The cells containing KOH were incubated for 30 minutes at room temperature with the KOH. Then the samples were removed and assayed by HPLC to determine CoQ10 levels.

The nature of data set [7]: Effect of UVB radiation on stability of CoQ10 in culture with fibroblasts (HPLC). As to conditions: fibroblast culture, 10 μM CoQ10, 24 hours. The class given is physicochemical. How it is done: as §2, §3, §1, §4
The subject of data set [8] is MMP-1. Kind of data set: IL-1-induced MMP-1 in dermal fibroblasts (ELISA). The class given is cell-based, human. As to conditions: Example 3; CoQ10 10 μM, 24 hours.
The test system of the next data set is IL-6. Kind of data set: UV-induced IL-6 in dermal fibroblasts (ELISA). The class given is cell-based, human. Particulars: 10 micromolar, 24 hours.
Description: (§6) Methods and Materials. The following experiment involved examining the effect of CoQ10 on UVR-induced inflammatory mediators in human dermal fibroblasts. That is, because skin aging is known to be accelerated by inflammatory cytokines produced in the skin by UVR, this experiment assessed the ability of CoQ10 to inhibit the production of the inflammatory mediators produced in human dermal fibroblasts in response to either UVB radiation or to stimulation by IL-1, a pro-inflammatory cytokine produced in keratinocytes by UVR.
(§7) The dose of UV for stimulating the production in fibroblasts of each of the inflammatory mediators—PGE-2, IL-6, IL-8, and the matrix metalloproteinase (“MMP-1”)—was 50 mJ.
(§8) The cells were isolated and cultured as follows. […]
as §5

In data set [9] the test system is MMP-1. Nature of the data set: UV-induced MMP-1 in dermal fibroblasts (ELISA). As to conditions: 10 micromolar, 50 mJ UV, 24 hours. The class given is cell-based, human.
Description: as §6, §7, §8, §5

For data set [10], the system named is PGE-2. Kind of data set: IL-1-induced PGE-2 in dermal fibroblasts. The class given is cell-based, human. Particulars: 24 hours. How it is done:
The cells were isolated and cultured as follows. The dermal fibroblasts were isolated from human neonatal foreskin and cultured in Dulbecco's modified eagle media with L-glutamine and 4.5 mM glucose and without sodium pyruvate (“DMEM”) (available from Fisher Scientific, Pittsburgh, Pa.) containing 5% horse serum (available from Hyclone, Logan, Utah), 5% fetal bovine serum (available from Hyclone), and penicillin/streptomycin (100 U/100 μg/ml). Cell cultures were grown at 37° C. in a humidified CO2 incubator (5% CO2). Cells were passaged prior to confluence by removing cells with a trypsin/EDTA solution, followed by centrifugation and re-seeding.
For the experiments, cells were seeded into 12 well culture dishes in complete growth medium at a density of 10^5 cells/well and allowed to attach overnight. The medium was then replaced with PBS for irradiation. A bank of two commercially available FS20 lamps were used for irradiation of cells. […] Cells were incubated for 24 hours at 37° C., at which time the media was removed for assay and the cells counted. […]
The impact of CoQ10, colorless carotenoids, and a combination of both on PGE-2 in fibroblasts stimulated with IL-1 was examined. […] All of the plates were then incubated for 24 hours and then the media was removed from culture and cells counted.

The nature of data set [11]: Solubility of CoQ10 in solvents compatible with cultured cells. The class given is physicochemical. From the text:
Because of the very poor solubility of CoQ10 in any solvent that is compatible with cultured cells, 10 μm of CoQ10 was the maximum final concentration that could be used in culture medium.

In the case of `CC(C)=CCC/C(C)=C/C=C/C(C)=C/C=C/C(C)=C/C=C/C=C(C)/C=C/C=C(C)/C=C/C=C(\C)CCC=C(C)C` [lycopene], the “oxidation of CoQ10 by hypochlorite in the presence of the carotenoid” value is on record as “significantly reduced” in data set [1] (Example 6, 0.1% lycopene, detergent, 30 minutes); “caused a reduction in oxidation” in data set [3] (0.03% hypochlorite, lycopene 2 mg/ml, or phytoene 0.0142% and phytofluene 0.0012%). Moreover, the “reduction of amount by the Fenton reaction” value in data set [2] (hydrogen peroxide and iron (III) chloride) came out at 50%.
As to `COC1=C(OC)C(=O)C(C/C=C(\C)CC/C=C(\C)CC/C=C(\C)CC/C=C(\C)CC/C=C(\C)CC/C=C(\C)CC/C=C(\C)CC/C=C(\C)CC/C=C(\C)CCC=C(C)C)=C(C)C1=O` [CoQ10, coenzyme Q10], in data set [4] (UVB doses 50 mJ to 200 mJ), the “stability of CoQ10 to UVB” value was “exhibited stability”. The “decrease in the concentration of CoQ10” value in data set [4] (high UVB doses, within experimental error) was under 10. Further, in the data set with PGE-2 [5], the “effect on levels of PGE-2 after UVB irradiation” value is on record as “only a small inhibitory effect”. The “loss of CoQ10 due to oxidation by potassium hydroxide” value in [6] was 80%. The “amount of CoQ10 after UVB radiation” value in [7] was “generally unaffected”. Moreover, the “blocking the IL-1 induction in MMP-1” value in the data set on MMP-1 [8] is reported as “ineffective”. Further, the “level of IL-6 induced in UVR-treated fibroblasts” value with IL-6 is given as “markedly lowered”. The “level of UVR-induced MMP1” value in the data set on MMP-1 [9] is given as “back to near control levels”. Besides, in data set [1] (Example 5, methanol:hexane, up to 30 minutes), the “loss of CoQ10 caused by sodium hypochlorite” value is 50%. For the same compound, the “IL-1 induction of PGE-2” value with PGE-2 [10] (Example 2, 10 micromolar, IL-1 100 picograms/ml) is recorded as “significant reduction”. For the same compound, the inhibition at 10 µM with PGE-2 [10] (Homo sapiens, Fibroblast, Example 3, CoQ10 10 μM, colorless carotenoid 15 micrograms/ml, read-out: inhibition of the IL-1 induction of PGE-2) is 16%. In data set [2] (10 micrograms/ml in chloroform/ethanol (1:1)), the “abundance or structure after the Fenton reaction” value is on record as “did not cause a reduction”. Also, in [11] (any solvent compatible with cultured cells), the solubility entry is listed as “very poor”. Moreover, the “maximum final concentration that could be used in culture medium” value in [11] (culture medium) worked out at 10 μm. Also, the “loss of CoQ10 caused by hypochlorite” value in [3] (695 μg/ml CoQ10, 0.03% hypochlorite) was found to be 60%.
